Test results reported in US20190364891A1, “Chemical Compositions for Combating Honey Bee Pests and Pathogens” (Fort Lewis College, priority 2018, published 2019).

Experiments:
[1] = tested on: Varroa mites; test: whole plant or invertebrate; conditions: for statistically significant mite mortality (Kruskal-Wallis): at 24 h, 100 mg/mL, 250 mg/mL, 1 g/mL tested, 15, 30 or 45 min exposure; for mite mortality: 24 h
Description: Efficacy of 12 caffeic and ferulic acid/ester molecules (caffeic acid, ferulic acid, caffeic acid cinnamyl ester, caffeic acid phenethyl ester, caffeic acid 3-methyl-3-butenyl ester, caffeic acid 3-methyl-2-butenyl ester, caffeic acid benzyl ester, ferulic acid cinnamyl ester, ferulic acid phenethyl ester, ferulic acid 3-methyl-3-butenyl ester, ferulic acid 3-methyl-2-butenyl ester, ferulic acid benzyl ester) against Varroa mites in a laboratory assay was determined. Adult female mites were collected from a single honey bee colony by uncapping drone cells and removing the mites to avoid injury that might occur if other methods (e.g., sugar shake) were used. Mites lacking vigor were discarded prior to experiment. Varroa were removed from single-age pupae, randomized, and placed in groups of ten in a sealed chamber. They were left in an incubator with pupae. After a set amount of time, the Varroa were transferred to a chamber with a potential miticide. The effects of each miticide were evaluated both through contact and through vapor. Concentrations and contact time were also evaluated. The Varroa were then transferred back to their chamber in the incubator and checked for mortality (each experiment in triplicate). […] Treatments were tested for their efficacy in repelling and killing mites.
To test for contact-phase miticidal activity, 250 μl of each treatment was evenly applied to a Whatman No. 4 filter paper in a Petri dish. The paper was allowed to completely dry before the assay and then it was adhered to the bottom of the dish. Ten mites per treatment were placed directly on the filter paper and the mites were kept in the dish for either 15 min, 30 min, or 45 min. After the initial time period, all mites were transferred into a sterile Petri dish and maintained in an incubator for 30 h. Each hour the mites were removed and observed under a dissecting lens. Each treatment concentration and exposure period was repeated three times.
Statistical analysis for repellency was conducted on the mean number of mites repelled and was compared by a two-way ANOVA. […] Percent mortality was compared between treatments by a non-parametric Kruskal-Wallis test.

[2] = tested on: Varroa mites; test: Example 2: mites exposed to filter paper impregnated with the caffeic ester family, mite mortality and activity; parameters: species or system Varroa destructor; conditions: assessed 6 h, 24 h, 30 h post exposure; various concentrations and exposure times
Description: In a series of assays, Whatman filter paper was impregnated with various concentrations of the caffeic ester family of molecules. Varroa mites were freshly harvested from brood frames and then directly exposed to the substrate. The exposure time was varied across different experiments. The Varroa mites were removed and placed into an incubator with pupae to feed on. Mite mortality and mite activity was assessed at several time points (6 h, 24 h, 30 h) post exposure.

Q: How did the mortality at 100000 µg/mL ([1]; Varroa destructor, 6 h, read-out: mortality (positive control)) turn out when Cc1ccc(C(C)C)c(O)c1 [thymol, reference compound] was run?
A: 100%

Q: For O=C(O)/C=C/c1ccc(O)c(O)c1 [caffeic acid], which “statistically significant mite mortality (Kruskal-Wallis)” value [1] is on record?
A: all of the molecules except caffeic acid and ferulic acid showed statistically significant mite mortality

Q: COc1cc(/C=C/C(=O)OCC=C(C)C)ccc1O [ferulic acid 3-methyl-2-butenyl ester] was tested. Which mite mortality [1] did it give?
A: over 60%

Q: With O=C(/C=C/c1ccc(O)c(O)c1)OCCc1ccccc1 [caffeic acid phenethyl ester] as the compound, how does the “relative efficacy (mite mortality and activity)” value [2] read?
A: most efficacious molecule tested

Q: With O=C(/C=C/c1ccc(O)c(O)c1)OCC=Cc1ccccc1 [caffeic acid cinnamyl ester] as the compound, how does the mite mortality [1] read?
A: over 60%

Q: How did the “statistically significant mite mortality (Kruskal-Wallis)” value [1] turn out when COc1cc(/C=C/C(=O)O)ccc1O [ferulic acid] was run?
A: all of the molecules except caffeic acid and ferulic acid showed statistically significant mite mortality
